Reference: paper PMC11270798, “N ^ α -acetyl-L-ornithine deacetylase from Escherichia coli and a ninhydrin-based assay to enable inhibitor identification” (Frontiers in Chemistry, 2024)

B1: N-alpha-acetyl-L-ornithine deacetylase (ArgE) from Escherichia coli (enzyme, E. coli, UniProt P23908 1-383, looked up)
chain: MKNKLPPFIEIYRALIATPSISATEEALDQSNADLITLLADWFKDLGFNVEVQPVPGTRNKFNMLASIGQGAGGLLLAGHTDTVPFDDGRWTRDPFTLTEHDGKLYGLGTADMKGFFAFILDALRDVDVTKLKKPLYILATADEETSMAGARYFAETTALRPDCAIIGEPTSLQPVRAHKGHISNAIRIQGQSGHSSDPARGVNAIELMHDAIGHILQLRDNLKERYHYEAFTVPYPTLNLGHIHGGDASNRICACCELHMDIRPLPGMTLNELNGLLNDALAPVSERWPGRLTVDELHPPIPGYECPPNHQLVEVVEKLLGAKTEVVNYCTEAPFIQTLCPTLVLGPGSINQAHQPDEYLETRFIKPTRELITQVIHHFCWH
notes: N-alpha-acetyl-L-ornithine deacetylase (ArgE), Escherichia coli, full-length ORF amplified from genomic DNA; catalytic domain residues 1-179 and 305-383, dimerization domain residues 180-304; Crystallised in a mono-zinc form (PDB 7RSF) and a di-zinc form (PDB 8UW6); same protein and purification for both; Three N-terminal residues are not modelled in the structures; also called EcArgE; E. coli …

Biological target: T1, EcArgE (Escherichia coli, UniProt P23908)
T1 construct: The open reading frame (ORF) of the full-length ArgE protein from E. coli was amplified; made in house; host or cells: E. coli
Assay: Ninhydrin-based ArgE enzyme assay (discontinuous, 570 nm)
Type: biochemical
Details: not given
Protocol: A discontinuous assay was performed utilizing a Techne PCR Thermal Cycler System and assays were run with a total reaction volume of 100 µL and a final enzyme concentration of 10 nM. […] The selected inhibitors were dissolved in 50 mM KPi buffer, pH: 7.5 at 30°C and screened at 100 μM or other concentrations, depending on the type of experiment, followed by the EcArgE enzyme and incubated for 10 min. […] A 2% ninhydrin solution (50 μL) was added, and the mixture was mixed by pipetting while cooled to 0°C. The reaction was then heated to 100°C for 10 min. The absorbance of an 80 μL aliquot was recorded at 570 nm on a BioTek Synergy 2 microplate reader. The IC50 values and kinetic constants were calculated using GraphPad Prism using non-linear regression and the Michaelis-Menten equation.

| Molecule | IC50 |
| --- | --- |
| O=C(O)c1ccc(B(O)O)cc1 [Entry 5, 4-carboxyphenylboronic acid] | 54.1 µM |
| CCN(CC)c1ccc(B(O)O)cc1 [Entry 4, 4-(diethylamino)phenylboronic acid] | 50.1 µM |

Same assay, conditions: 100 μM inhibitor, ninhydrin assay, substrate 3

| Molecule | inhibition at 100 µM | % Inhibition at 100 μM |
| --- | --- | --- |
| CCN(CC)c1ccc(C(=O)O)cc1 [Entry 27] | 53.4 ± 2.6% |  |
| CC(=O)c1ccc(B(O)O)cc1 [Entry 12] | 15.8 ± 1.9% |  |
| CC(=O)Nc1ccc(B(O)O)cc1 [Entry 13] | 24 ± 6.9% |  |
| OB(O)c1ccc2c(c1)OCO2 [Entry 20] | 47 ± 2.7% |  |
| OB(O)c1ccc(OC(F)(F)F)cc1 [Entry 10] | 25.5 ± 2.4% |  |
| O=C(O)c1ccc(B(O)O)cc1 [Entry 5, 4-carboxyphenylboronic acid] | 80.4 ± 3.7% |  |
| CN(C)c1ccc(C(=O)O)cc1 [Entry 28] | 41 ± 10.8% |  |
| OB(O)c1ccc2ccccc2c1 [Entry 24] | 16.2 ± 6.1% |  |
| OB(O)c1ccccc1 [Entry 3, phenylboronic acid] | 41.9 ± 1.8% |  |
| OB(O)c1ccc(Oc2ccc(OC(F)(F)F)cc2)cc1 [Entry 17] | 36 ± 5.8% |  |
| OB(O)c1ccc(F)cc1 [Entry 11] | 8.1 ± 4.1% |  |
| O=C(O)c1ccc([N+](=O)[O-])cc1 [Entry 26, 4-nitrobenzoic acid] | 57.9 ± 7.1% |  |
| OB(O)c1ccccc1C(F)(F)F [Entry 23] | 40.6 ± 9% |  |
| OB(O)c1ccc(O)cc1 [Entry 9] | 29.8 ± 11.2% |  |
| CS(=O)(=O)Nc1ccc(B(O)O)cc1 [Entry 14] | 23.5 ± 6.9% |  |
| CCN(CC)c1ccc(B(O)O)cc1 [Entry 4, 4-(diethylamino)phenylboronic acid] | 91.5 ± 1.5% |  |
| Cc1ccc(B(O)O)cc1 [Entry 7] | 59 ± 9.4% |  |
| OB(O)c1ccc(Oc2ccc(F)cc2)cc1 [Entry 18] | 9.3 ± 1.8% |  |
| OB(O)c1ccc(Oc2ccccc2)cc1 [Entry 15] | 48.8 ± 2.7% |  |
| OB(O)c1cccc(OCc2ccccc2)c1 [Entry 21] | 40.3 ± 6.8% |  |
| OB(O)c1cc(C(F)(F)F)cc(C(F)(F)F)c1 [Entry 22] | 0% | lacked activity |
| OB(O)c1cccc(Cl)c1 [Entry 19] | 19.7 ± 3% |  |
| OB(O)c1ccc(Oc2ccc(Cl)cc2)cc1 [Entry 16] | 55.7 ± 4.9% |  |
| OB(O)c1ccc(Cl)cc1 [Entry 6, 4-chlorophenylboronic acid] | 68.7 ± 1.2% |  |
| C[C@H](CS)C(=O)N1CCC[C@H]1C(=O)O [Entry 1, captopril, reference compound] | 57.8 ± 0.04% |  |
| N#Cc1ccc(B(O)O)cc1 [Entry 8] | 48 ± 2.6% |  |

Same assay, conditions: ArgE

| Molecule | mode of inhibition |
| --- | --- |
| C[C@H](CS)C(=O)N1CCC[C@H]1C(=O)O [Entry 1, captopril, reference compound] | […] |

System: DapE
Assay: not given
Parameters: method as in Gillner et al., 2009
Details: ref Gillner et al., 2009; cited from earlier work

| Molecule | IC50 | mode of inhibition |
| --- | --- | --- |
| C[C@H](CS)C(=O)N1CCC[C@H]1C(=O)O [Entry 1, captopril, reference compound] | […] | […] |

Biological target: T2, ArgE (Escherichia coli, UniProt P23908)
Assay: biochemical
Details: read-out: % inhibition at 2 mM

| Molecule | inhibition at 2000 µM |
| --- | --- |
| NC(CO)(CO)CO [Tris] | 21.2% |

Biological target: T2, ArgE
Assay: Cleavage of alternative substrates by ArgE
Type: biochemical
Parameters: The open reading frame (ORF) of the full-length ArgE protein from E. coli was amplified; made in house; host or cells: E. coli
Details: monitoring at 225 nm
Description: Previously, Blanchard developed a simple, continuous 214 nm assay ([Javid-Majd and Blanchard, 2000]) using the endogenous substrate NAO to test potential inhibitors of ArgE. The 214 nm assay is a simple and reproducible assay but it is not useful for inhibitors that absorb strongly in the UV region, therefore excluding many drug-like molecules, as high background UV absorption would lead to greater background and obscure the actual enzyme cleavage data. […] As an alternative assay, we explored another potential substrate, p-nitrophenyl acetate, in the hope that ArgE would cleave the acetate to yield the product p-nitrophenol, but we observed no cleavage based on monitoring at 405 nm ([Means and Bender, 1975]). We also attempted the use of the DapE alternate substrate N ^6-methyl-N-succinyl-L,L-diaminopimelic acid (N ^6-methyl-SDAP) ([Heath et al., 2018]) because of the similarities between the ArgE and DapE active site structure but observed no cleavage of this synthetic substrate at 225 nm. We therefore designed a ninhydrin-based assay similar to our DapE ninhydrin-based assay ([Heath et al., 2018]) to enable the analysis of more structurally diverse inhibitors.

| Molecule | cleavage by ArgE |
| --- | --- |
| CN[C@@H](CCC[C@H](NC(=O)CCC(=O)O)C(=O)O)C(=O)O [N ^6-methyl-SDAP, N ^6-methyl-N-succinyl-L,L-diaminopimelic acid] | no cleavage |

Same assay, conditions: monitoring at 405 nm

| Molecule | cleavage by ArgE |
| --- | --- |
| CC(=O)Oc1ccc([N+](=O)[O-])cc1 [p-nitrophenyl acetate] | no cleavage |

Biological target: the molecule itself
Assay: crystal structure; EcArgE crystallised by sitting-drop vapor diffusion at 16°C; mono-Zn form from 1 M ammonium citrate, 0.1 M Bis-Tris propane pH 7.0; di-Zn form from 0.2 M lithium sulfate, 30% PEG 3350, 0.1 M Tris pH 8.5; dimer seen in the crystals
Details: not given

| Molecule | binding result |
| --- | --- |
| B1 | binds |
